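48-hour exposure; five concentrations; linearly interpolated endpoints. GI50 is the concentration that inhibits growth by half. TGI denotes the concentration required for complete inhibition of growth.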 Where only a bound is given, the exact number is not on record here.

Common to all, as to experiment: NCI-60 cell line screen, 48 h
Assay [1] deals with KM12 colon.
For assay [2], the system named is MDA-MB-435.
Assay [3] concerns MCF7 breast.
For assay [4], the system named is K-562 leukemia.
In assay [5] the test system is M14 melanoma.
For assay [6], the system named is A549 NSCLC.
Assay [7] concerns SW-620 colon.
For assay [8], the system named is A498 renal.
For assay [9], the system named is DU-145 prostate.
Assay [10] has as its system SF-268 CNS.

Take `CC(CN1CCN(C)CC1)CN1c2ccccc2Sc2ccc(C(F)(F)F)cc21` (stereo not drawn): the GI50 in assay [1] was 1950 nM; in assay [2], 1800 nM; in [3], 1640 nM; in assay [4], 1760 nM; in assay [5], 1750 nM; in [6], 1.85 µM. Besides, the GI50 in [7] is 1830 nM; in [8] it was 2980 nM; in assay [9], 2800 nM; in assay [10] it was 3.1 µM. Also, the TGI in assay [1] turned out to be 3.52 µM; in assay [2], 3.6 µM; in assay [3], 3.16 µM; in assay [4], 4.21 µM; in assay [5] it was 3.25 µM; in assay [6], 3.49 µM. The TGI came out at 3.67 µM in assay [7], 15.2 µM in [8], 6.99 µM in assay [9] and 9.29 µM in assay [10].

Consider `CC(C)(O)C1CCC(Nc2ccc3ncc(-c4cccc(C(F)(F)F)c4)n3n2)CC1` (stereo not drawn), for which the GI50 in assay [1] was 132 nM; in assay [2], 2060 nM; in assay [3], 2750 nM; in assay [4] it was 2270 nM; in assay [5] it was 1230 nM; in assay [6] it was 3.1 µM. The GI50 is 2910 nM in assay [7], 1480 nM in [8], 3520 nM in assay [9] and 3.79 µM in [10]. In addition, the TGI in assay [1] is 11.7 µM; in assay [2], more than 100 µM; in assay [3], 12.5 µM; in assay [4], 11.9 µM; in assay [5], 4.49 µM; in assay [6], 13.2 µM. Moreover, the TGI in assay [7] came out at 15 µM; in assay [8], 4.49 µM; in assay [9], 14.8 µM; in assay [10] it was 18.2 µM.

As for `COc1ccn2c(C(C)=O)cc(C(=O)c3ccc4c(c3)Sc3ccccc3N4)c2c1`, the GI50 in assay [1] is 87.4 nM; in [2], 19 nM; in assay [3] it was 89.3 nM; in [4], 64.3 nM; in assay [5], 85.3 nM; in assay [6], 0.122 µM. The GI50 in assay [7] was 148 nM; in assay [8], 64 nM; in assay [9] it was 122 nM; in assay [10], 0.141 µM. In addition, the TGI is more than 27.3 µM in assay [1]; 0.0454 µM in assay [2]; more than 100 µM in [3]; more than 100 µM in [4]; more than 100 µM in assay [5]; more than 100 µM in assay [6]. The TGI in [7] is more than 100 µM; in [8], 0.251 µM; in [9], more than 100 µM; in [10], more than 100 µM.

For `C=C1CC2(C[C@@H](c3ccccc3)O[C@@H](c3ccccc3)C2)OC1=O` (stereo partly drawn), the TGI in assay [1] amounted to 15.5 µM; in [2], 7.48 µM; in [3] it was 5.73 µM; in [4] it was 7.51 µM; in assay [5] it was 3.34 µM; in assay [6] it was 13.4 µM. For the same molecule, the TGI in [7] was 3.95 µM; in assay [8] it was 23.5 µM; in assay [9], 21.4 µM; in [10] it was 23.6 µM.

On to `O=Cc1cn(Cc2cccc(Cl)c2)c2ccccc12`, for which the GI50 in [1] was 14700 nM; in assay [2], 12200 nM; in assay [3] it was 1850 nM; in assay [4], 2970 nM; in [5], 11400 nM; in assay [6], 15.9 µM. Further, the GI50 in [7] was 7370 nM; in [8], 135 nM; in assay [9] it was 12500 nM; in assay [10], 11.7 µM. Also, the TGI was 35.1 µM in assay [1]; 28.5 µM in [2]; 19.4 µM in [3]; more than 56.7 µM in assay [4]; 26.9 µM in assay [5]; 48.5 µM in assay [6]. For the same molecule, the TGI was found to be 23.1 µM in [7], 0.299 µM in [8], 25 µM in [9] and 26.3 µM in assay [10].

Turning to `C=C(C)[C@@H]1CC[C@]2(C(=O)NCCNCCNCCN)CC[C@]3(C)[C@H](CC[C@@H]4[C@@]5(C)CC[C@H](O)C(C)(C)[C@@H]5CC[C@]43C)[C@@H]12`, the GI50 in [1] was 6810 nM; in [2] it was 13400 nM; in assay [3] it was 13200 nM; in [4], 6900 nM; in assay [5], 11000 nM; in [6], 4.97 µM. The GI50 in [7] was 14700 nM; in assay [8] it was 19600 nM; in [9] it was 14100 nM; in assay [10], 13.5 µM. For the same molecule, the TGI in assay [1] is 26.2 µM; in assay [2], 27.2 µM; in [3] it was 29.3 µM; in [4], more than 100 µM; in assay [5], 28.7 µM; in assay [6], 21.4 µM. Further, the TGI in assay [7] amounted to 34.4 µM; in assay [8] it was 64.7 µM; in [9] it was 30.1 µM; in [10] it was 32.3 µM.

In the case of `CC(C)[C@@]12C[C@@H](OC(=O)COC(=O)/C=C/c3ccccc3)[C@@](C)(O1)[C@@H]1CC[C@@H](C)[C@H]1[C@@H]2OC(=O)/C=C/c1ccccc1`, the GI50 was more than 100000 nM in assay [1]; more than 100000 nM in [2]; more than 100000 nM in assay [3]; more than 78100 nM in assay [4]; more than 100000 nM in [5]; more than 100 µM in assay [6]. Moreover, the values for the GI50 in assay [7], in assay [8] and in [9] were more than 100000 nM, less than 44.1 nM and more than 100000 nM, respectively. The TGI in assay [1], in assay [2], in assay [3], in assay [4], in assay [5] and in assay [6] was more than 100 µM in each case. The TGI was more than 100 µM in assay [7], 0.401 µM in assay [8], more than 100 µM in [9] and more than 100 µM in [10].

In the case of `Cc1nc2sc(C(=O)Nc3cccc4ccccc34)c(N)c2cc1C(=O)/C=C/c1ccccc1`, the GI50 in assay [1] is 368 nM; in assay [2], 116 nM; in assay [3], 201 nM; in [4], 191 nM; in assay [5], 181 nM; in [6], 0.463 µM. The GI50 in assay [7] is 210 nM; in assay [8] it was 337 nM; in assay [9], 822 nM; in assay [10], 1.15 µM. Moreover, the TGI in assay [1] is 1.25 µM; in assay [2], 0.274 µM; in assay [3] it was more than 50 µM; in [4] it was more than 50 µM; in assay [5] it was 1.68 µM; in assay [6] it was more than 50 µM. In addition, the TGI in assay [7] is 1.66 µM; in [8], 1.87 µM; in assay [9], 3.6 µM; in [10] it was more than 32.4 µM.

Consider `COc1cc2c3c(n(CCCNCC(OC)OC)c(=O)c2cc1OC)-c1cc2c(cc1C3=O)OCO2`, for which the GI50 in assay [1] was 2140 nM; in assay [2], 10400 nM; in assay [3], less than 31.5 nM; in assay [4], 910 nM; in assay [5], 345 nM; in assay [6], 11.2 µM. The GI50 is 2050 nM in assay [7], 14000 nM in assay [8], 399 nM in assay [9] and 1.05 µM in assay [10]. The TGI was 34.6 µM in assay [1]; 97 µM in assay [2]; more than 48.6 µM in assay [3]; more than 46.8 µM in assay [4]; more than 37.2 µM in assay [5]; 37.9 µM in assay [6]. For the same molecule, the TGI in assay [7] is 24.2 µM; in assay [8] it was 33.9 µM; in [9] it was 13.7 µM; in assay [10] it was more than 55.1 µM.

For `COc1cc(C(O)c2nc3ccccc3s2)cc(OC)c1OC` (stereo not drawn), the GI50 in assay [1] was 78300 nM; in [2], 20400 nM; in [3] it was 41300 nM; in assay [4] it was 3600 nM; in [5] it was 85300 nM; in [6], 86.7 µM. Further, the GI50 in [7] was more than 100000 nM; in assay [8] it was 3180 nM; in [9] it was more than 100000 nM; in [10], more than 100 µM. Moreover, the TGI in assay [1], in assay [2], in [3], in assay [4], in assay [5] and in assay [6] was more than 100 µM each time. Also, the TGI in assay [7], in assay [8], in assay [9] and in assay [10] was more than 100 µM throughout.

Take `COc1ccc(C(=O)COc2cccc(/C=C3\CSc4ccccc4C3=O)c2)cc1`: the GI50 in assay [1] was 1560 nM; in assay [2], 1980 nM; in assay [3], 537 nM; in [4] it was 362 nM; in assay [5] it was 2010 nM; in [6] it was 9.04 µM. In addition, the GI50 in assay [7] was 262 nM; in assay [8], 16500 nM; in [9], 2530 nM; in assay [10] it was 2.47 µM. Moreover, the TGI in assay [1] worked out at 3.05 µM; in assay [2], 4.62 µM; in assay [3] it was 2.22 µM; in assay [5], 4.01 µM; in [6] it was 39.5 µM; in assay [7], 0.707 µM. For the same molecule, the TGI is 32 µM in [8], 5.4 µM in assay [9] and 5.77 µM in assay [10].

Values taken from PubChem BioAssay (NCI).
